# Patent publication US20220386606A1, “SPECIFICALLY SUBSTITUTED 3-PHENYL-5-SPIROCYCLOPENTYL-3-PYRROLIN-2-ONES AND THEIR USE AS HERBICIDES” (Bayer Aktiengesellschaft, priority 2019, published 2022)
# Legend:
# AVEFA [1] = assay: Post-emergence herbicidal action against AVEFA; assay type: in vivo, Avena fatua; conditions: 80 g/ha, visual assessment after about 3 weeks
# Method in brief: (§1)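 Weeds were grown in sandy loam in a greenhouse and treated at the one-leaf stage, 2 to 3 weeks after sowing. WP or EC formulations were sprayed onto green parts at 600 to 800 l/ha water with 0.2% wetting agent. Visual % action versus untreated controls was scored after about 3 weeks.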
# ABUTH [2] = assay: Post-emergence herbicidal action against ABUTH; assay type: in vivo, Abutylon threophrasti; conditions: 80 g/ha, visual assessment about 3 weeks after treatment vs untreated controls
# Method in brief: as §1
# LOLRI [3] = assay: Pre-emergence herbicidal action against LOLRI (Table 8, titled post-emergence at 320 g/ha); assay type: in vivo, Lolium rigidum; conditions: table stands in the pre-emergence section
# Method in brief: (§2)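 Weed and crop seeds sown in sandy loam, then WP or EC formulations sprayed onto covering soil pre-emergence as aqueous suspension or emulsion at 600 to 800 L/ha water with 0.2% wetting agent. Greenhouse-grown; visual damage scored after 3 weeks versus untreated controls, 0–100%.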
# ALOMY [4] = assay: Post-emergence herbicidal action against ALOMY; assay type: in vivo, Alopecurus myosuroides; conditions: 80 g/ha, visual assessment after about 3 weeks
# Method in brief: as §1
# SETVI [5] = assay: Post-emergence herbicidal action against SETVI; assay type: in vivo, Setaria viridis; conditions: 80 g/ha, visual assessment about 3 weeks after treatment vs untreated controls
# Method in brief: as §1
# AVEFA [6] = assay: Pre-emergence herbicidal action against AVEFA; assay type: in vivo, Avena fatua; conditions: 320 g/ha, scored visually after 3 weeks vs untreated controls
# Method in brief: as §2
# DIGSA [7] = assay: Post-emergence herbicidal action against DIGSA; assay type: in vivo, Digitaria sanguinalis; conditions: 80 g/ha, visual assessment about 3 weeks after treatment vs untreated controls
# Method in brief: as §1
# ECHCG [8] = assay: Pre-emergence herbicidal action against ECHCG; assay type: in vivo, Echinochloa crus-galli; conditions: 320 g/ha, scored visually after 3 weeks vs untreated controls
# Method in brief: as §2
# VIOTR = assay: Pre-emergence herbicidal action against VIOTR; assay type: in vivo, Viola tricolor; conditions: 320 g/ha
# Method in brief: as §2
# ECHCG [9] = assay: Post-emergence herbicidal action against ECHCG; assay type: in vivo, Echinochloa crus-galli; conditions: 80 g/ha, visual assessment about 3 weeks after treatment vs untreated controls
# Method in brief: as §1
# LOLRI [10] = assay: Post-emergence herbicidal action against LOLRI; assay type: in vivo, Lolium rigidum; conditions: 80 g/ha, visual assessment about 3 weeks after treatment vs untreated controls
# Method in brief: as §1
# ALOMY [11] = assay: Pre-emergence herbicidal action against ALOMY; assay type: in vivo, Alopecurus myosuroides; conditions: 320 g/ha, scored visually after 3 weeks vs untreated controls
# Method in brief: as §2
# AMARE [12] = assay: Post-emergence herbicidal action against AMARE; assay type: in vivo, Amaranthus retroflexus; conditions: 80 g/ha, visual assessment about 3 weeks after treatment vs untreated controls
# Procedure: (§3) Seeds of monocotyledonous and dicotyledonous weed and crop plants are laid out in sandy loam soil in wood-fiber pots, covered with soil and cultivated in a greenhouse under good growth conditions. 2 to 3 weeks after sowing, the test plants are treated at the one-leaf stage. The compounds of the invention, formulated in the form of wettable powders (WP) or as emulsion concentrates (EC), are then sprayed onto the green parts of the plants as aqueous suspension or emulsion at a water application rate equating to 600 to 800 l/ha with addition of 0.2% wetting agent. After the test plants have been left to stand in the greenhouse under optimal growth conditions for about 3 weeks, the action of the preparations is assessed visually in comparison to untreated controls (herbicidal action in percent (%): 100% activity=the plants have died, 0% activity=like control plants).
# DIGSA [13] = assay: Pre-emergence herbicidal action against DIGSA; assay type: in vivo, Digitaria sanguinalis; conditions: 320 g/ha, scored visually after 3 weeks vs untreated controls
# Method in brief: as §2
# SETVI [14] = assay: Pre-emergence herbicidal action against SETVI; assay type: in vivo, Setaria viridis; conditions: 320 g/ha, scored visually after 3 weeks vs untreated controls
# Method in brief: as §2
# AMARE [15] = assay: Pre-emergence herbicidal action against AMARE; assay type: in vivo, Amaranthus retroflexus; conditions: 320 g/ha
# Method in brief: as §2
# POLCO = assay: Pre-emergence herbicidal action against POLCO; assay type: in vivo, Polygonum convolvulus; conditions: 320 g/ha
# Method in brief: as §2
# ABUTH [16] = assay: Pre-emergence herbicidal action against ABUTH; assay type: in vivo, Abutylon threophrasti; conditions: 320 g/ha
# Method in brief: as §2
# VERPE [17] = assay: Pre-emergence herbicidal action against VERPE; assay type: in vivo, Veronica persica; conditions: 320 g/ha
# Method in brief: as §2
# MATIN = assay: Pre-emergence herbicidal action against MATIN; assay type: in vivo; conditions: 320 g/ha
# Method in brief: as §2
# VERPE [18] = assay: Post-emergence herbicidal action against VERPE; assay type: in vivo, Veronica persica; conditions: 80 g/ha, visual assessment about 3 weeks after treatment vs untreated controls
# Procedure: as §3
# HORMU = assay: Post-emergence herbicidal action against HORMU; assay type: in vivo, Hordeum murinum; conditions: 80 g/ha, visual assessment about 3 weeks after treatment vs untreated controls
# Method in brief: as §1
Structure (SMILES),Post-emergence action against AVEFA in % (AVEFA [1]) [%],Post-emergence action against ABUTH in % (ABUTH [2]) [%],Pre-emergence herbicidal action against LOLRI in % (LOLRI [3]) [%],Post-emergence action against ALOMY in % (ALOMY [4]) [%],Post-emergence action against SETVI in % (SETVI [5]) [%],Pre-emergence action against AVEFA in % (AVEFA [6]) [%],Post-emergence action against DIGSA in % (DIGSA [7]) [%],Pre-emergence action against ECHCG in % (ECHCG [8]) [%],Pre-emergence action against VIOTR in % (VIOTR) [%],Post-emergence action against ECHCG in % (ECHCG [9]) [%],Post-emergence action against LOLRI in % (LOLRI [10]) [%],Pre-emergence action against ALOMY in % (ALOMY [11]) [%],Post-emergence action against AMARE in % (AMARE [12]) [%],Pre-emergence action against DIGSA in % (DIGSA [13]) [%],Pre-emergence action against SETVI in % (SETVI [14]) [%],Pre-emergence action against AMARE in % (AMARE [15]) [%],Pre-emergence action against ABUTH in % (ABUTH [16]) [%],Pre-emergence action against VERPE in % (VERPE [17]) [%],further results
CC#Cc1cc(C)c(C2=C(O)C3(CCC(COC)C3)NC2=O)c(OC)c1 (centres unmarked) [Example I-31],100,80,100,100,100,80,100,100,80,100,100,100,80,100,100,,,,
CC#Cc1cc(C)c(C2=C(O)C3(CCC(COC)C3)NC2=O)c(F)c1 (centres unmarked) [Example I-36],100,80,100,100,,80,100,100,80,100,100,100,80,100,100,90,,,
C=CCOCC1CCC2(C1)NC(=O)C(c1c(C)cc(C#CC)cc1Cl)=C2O (centres unmarked) [Example I-44],80,,100,100,100,90,100,90,100,100,80,100,80,100,100,100,80,80,Pre-emergence action against POLCO in % (POLCO): 100%; Pre-emergence action against MATIN in % (MATIN): 80%
CC#Cc1cc(C)c(C2=C(O)C3(CCC(COCCC)C3)NC2=O)c(Cl)c1 (centres unmarked) [Example I-71],80,,100,90,100,80,90,100,100,90,90,100,,100,100,,,90,Post-emergence action against VERPE in % (VERPE [18]): 80%; Pre-emergence action against MATIN in % (MATIN): 90%
CC#Cc1cc(C)c(C2=C(OC(=O)OCC)C3(CCC(COC)C3)NC2=O)c(Cl)c1 (centres unmarked) [Example P-18],100,80,,100,100,,100,,,100,100,,80,,,,,,Post-emergence action against HORMU in % (HORMU): 100%
CC#Cc1cc(C)c(C2=C(OC(=O)OCC)C3(CCC(COC)C3)NC2=O)c(Br)c1 (centres unmarked) [Example P-31],100,,100,90,100,100,100,100,100,100,100,100,80,100,100,100,90,90,Pre-emergence action against POLCO in % (POLCO): 90%
CC#Cc1cc(C)c(C2=C(OC(=O)C(C)C)C3(CCC(COC)C3)NC2=O)c(F)c1 (centres unmarked) [Example P-58],90,80,100,100,,90,100,100,100,100,100,100,80,100,100,90,80,,
CC#Cc1cc(F)c(C2=C(OC(=O)OCC)C3(CCC(COC)C3)NC2=O)c(OC)c1 (centres unmarked) [Example P-62],90,80,100,90,100,90,100,100,,100,90,100,80,100,100,,,,
C=CCOCC1CCC2(C1)NC(=O)C(c1c(C)cc(C#CC)cc1Br)=C2OC(=O)OCC (centres unmarked) [Example P-88],,,100,100,100,90,90,100,100,100,100,100,80,100,100,,80,100,
